Structures can show the parent of a compound that is named as a salt.
Tested on: 45Ca2+ uptake
Experiment: 45Ca2+ uptake inhibition experiments (veratrine-stimulated, rat cerebral cortex crude synaptosome fraction)
Type: biochemical
Conditions: stimulated by 30 μM veratrine, rat cerebral cortex synaptosomes
Experimental: ^45 Ca^2+ uptake inhibition experiments
Rat cerebral cortex was homogenized with a 10-fold volume of 0.32M sucrose solution to yield a crude synaptosome fraction (100×g for 10 minutes, 12,000×g for 20 minutes). This fraction was homogenized in Tris buffer [neutralized with 132 mM sodium chloride, 5 mM potassium chloride, 1.3 mM magnesium chloride, 1.2 mM sodium dihydrogen phosphate, 1.2 mM calcium chloride, 10 mM glucose and 20 mM Tris base, saturated with a mixed gas (95% oxygen and 5% carbon dioxide)]. To 900 μl of this suspension, a DMSO solution (10 μl ) of the test drug was added, followed by 10 minutes of incubation at 37° C. 100 μl (final concentration 30μM) of a veratrine solution (containing 0.18 μci ^45 Ca^2+) was then added, followed by 10 minutes of incubation at 37° C. Subsequently, the reaction mixture was quenched by the addition of 4 ml of an ice cooled EGTA solution (120 mM sodium chloride, 5 mM potassium chloride, 5 mM EGTA, pH 7.5), and subjected to aspiration filtration through a GF/B filter; the filter was washed with two 4 ml portions of a washing solution (132 mM sodium chloride, 5 mM potassium chloride, 1.3 mM magnesium chloride, 1.2 mM calcium chloride, 20 mM Tris base, pH 7.5). The radioactivity on the filter was measured by the liquid scintillation method.
^45 Ca^2+ uptake suppression rates were calculated as follows: [formula]
^45 Ca^2+ uptake stimulated by 30 μM veratrine for 10 minutes in the presence of test drug
B: ^45 Ca^2+ uptake in the absence of veratrine and in the presence of test drug
C: ^45 Ca^2 + uptake stimulated by 30 μM veratrine for 10 minutes in the absence of test drug
D: ^45 Ca^2 + uptake in the absence of veratrine and test drug

In order of falling “45Ca Uptake Inhibitory Activity (% inhibition at 10 μM)” value:
1. COc1ccc2c(c1)CCC1(CCCCN1CCN1CCC(c3ccccc3)CC1)C2.Cl.Cl (stereo not drawn) [Example 7-9, 3,4-Dihydro-6-methoxy-1'-[2-(4-phenylpiperidine-1-yl)ethyl]spiro[naphthalene-2(1H),2'-piperidine] dihydrochloride]  109%
2. COc1ccc2c(c1)CCC1(CCCCN1CCN1CCN(c3cccc(C(F)(F)F)c3)CC1)C2.Cl.Cl (stereo not drawn) [Example 7-6, 1'-[2-(4-(3-Trifluoromethylphenyl)piperazine-1-yl)ethyl]-3,4-dihydro-6-methoxyspiro[naphthalene-2(1H),2'-piperidine] dihydrochloride]  106%
3. COc1ccc2c(c1)CCC1(CCCCN1CCN1CCN(c3ccccc3Cl)CC1)C2.Cl.Cl (stereo not drawn) [Example 7-3, 1'-[2-(4-(2-Chlorophenyl)piperazine-1-yl)ethyl]-3,4-dihydro-6-methoxyspiro[naphthalene-2(1H),2'-piperidine] dihydrochloride]  95%
4. COc1ccc2c(c1)CCC1(CCCCN1CCCc1ccccc1)C2 (stereo not drawn) [Example 5-9, 3,4-Dihydro-6-methoxy-1'-(3-phenylpropyl)spiro[naphthalene-(1H),2'-piperidine] hydrochloride]  92%
5. COc1cccc(N2CCN(CCN3CCCCC34CCc3cc(OC)ccc3C4)CC2)c1.Cl.Cl (stereo not drawn) [Example 7-1, 3,4-Dihydro-6-methoxy-1'-[2-(4-(3-methoxyphenyl)piperazine-1-yl)ethyl]spiro[naphthalene-2(1H),2'-piperidine] dihydrochloride]  90%
6. COc1ccc2c(c1)CCC1(CCCCN1CCOc1ccccc1)C2 (stereo not drawn) [Example 5-10, 3,4-Dihydro-6-methoxy-1'-(2-phenoxyethyl)spiro[naphthalene-(1H),2'-piperidine] hydrochloride]  88%
7. COc1ccc2c(c1)CCC1(CCCCN1CCN1CCN(c3ccc(F)cc3)CC1)C2 (stereo not drawn) [Example 7-5, 1'-[2-(4-(4-Fluorophenyl)piperazine-1-yl)ethyl]-3,4-dihydro-6-methoxyspiro[naphthalene-2(1H),2'-piperidine]dihydrochloride]  87%
8. COc1ccc2c(c1)CCC1(CCCCN1CCCC1CCN(Cc3ccccc3)CC1)C2.Cl.Cl (stereo not drawn) [Example 5-14, 3,4-Dihydro-6-methoxy-1'-[3-(1-phenylmethylpiperidin-4yl)propyl]spiro[naphthalene-2(1H),2'-piperidine] dihydrochloride]  74%

Target: T1, Monoamine oxidase B (MAO-B) (Rattus norvegicus, UniProt P19643)
T1 construct: Whole rat brains were homogenized in a 10-fold volume of ice cooled 0.32 mM sucrose solution; from tissue; host or cells: whole rat brain homogenate
T1 sequence (P19643 1-520): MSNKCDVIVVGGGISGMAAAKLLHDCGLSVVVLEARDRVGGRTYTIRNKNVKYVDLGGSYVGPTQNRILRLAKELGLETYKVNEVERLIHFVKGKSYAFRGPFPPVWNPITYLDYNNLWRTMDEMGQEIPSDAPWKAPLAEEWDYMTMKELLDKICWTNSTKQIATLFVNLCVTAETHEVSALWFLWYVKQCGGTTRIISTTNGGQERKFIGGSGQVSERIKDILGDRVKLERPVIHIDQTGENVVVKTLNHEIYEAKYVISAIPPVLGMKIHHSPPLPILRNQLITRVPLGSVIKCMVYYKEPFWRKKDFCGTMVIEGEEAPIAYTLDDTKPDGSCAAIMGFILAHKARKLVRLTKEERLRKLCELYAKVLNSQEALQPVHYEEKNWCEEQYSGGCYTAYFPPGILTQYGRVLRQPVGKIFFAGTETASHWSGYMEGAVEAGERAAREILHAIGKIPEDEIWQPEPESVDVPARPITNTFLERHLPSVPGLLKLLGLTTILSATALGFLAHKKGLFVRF
Experiment: Monoamine oxidase B (MAO-B) inhibitory activity
Type: biochemical
Conditions: not given
Experimental: Monoamine oxidase B (MAO-B) inhibitory activity
Whole rat brains were homogenized in a 10-fold volume of ice cooled […] sucrose solution and diluted with a 10-fold volume of 10 mM phosphate buffer (pH 7.4). To 90 μl of this enzyme specimen, 1 μl of the test drug solution was added, followed by 10 minutes of incubation at 37° C. To the mixture, 10 μM of 14C-phenylethylamine was added, followed by 5 minutes of incubation at 37° C. After the reaction was stopped by the addition of 20 μl of 3M hydrochloric acid, 1 ml of water-saturated toluene-ethyl acetate (1:1) was added. The radioactivity of the metabolite migrated in the organic layer was measured by the liquid scintillation method.

`CCCN1CCCCC12CCc1cc(OCc3ccsc3)ccc1C2` (stereo not drawn) [Example 9-45, 3,4-Dihydro-1'-propyl-6-(3-thienylmethoxy)spiro[naphthalene-2(1H),2'-piperidine] hydrochloride] showed an IC50 of 60 nM.
